Measured values as given in patent publication US5114919A, “Adjuncts in cancer chemotherapy” (Merck & Co., Inc., priority 1991, dated 1992).

Assays:
[1] = system: KB-V-1 drug-resistant cell line; experiment: [3H]vinblastine accumulation assay in KB-V-1 drug-resistant cells; assay type: cell-based, human; conditions: for Accumulation of [3H]vinblastine, KB-V-1, drug preincubated (60 min): Table 2
Source text: (§1) Radiolabelled compounds may also be utilized to determine the accumulation of antitumor chemotherapeutic agents in drug sensitive cells and in multidrug resistant cells. For example, the accumulation of [^3 H]vinblastine by drug sensitive cell lines and drug resistant cell lines in the presence or absence of a test compound may be determined. The relative accumulation of the radiolabelled chemotherapeutic agent is indicative of the ability of a compound to reverse multidrug resistance.
(§2) Drug Accumulation: Measurement of the accumulation of [^3 H] vinblastine in a KB-3 drug-sensitive cell line and a KB-V-1 drug-resistantcell line was performed at 37° C. in serum-free medium (DMEM). Cell monolayers were grown in 24 well dishes. [^3 H] vinblastine and different compounds (20 μM) were added to cells incubated for 30 minutes, monolayers were washed later, and drug accumulation per mg protein was assayed.

[2] = system: KB-3 drug-sensitive cell line; experiment: [3H]vinblastine accumulation assay in KB-3 drug-sensitive cells; assay type: cell-based, human; conditions: 37° C., serum-free DMEM; for Accumulation of [3H]vinblastine, KB-3: Table 1, compound 20 μM, 30 minutes; for Accumulation of [3H]vinblastine, KB-3, drug preincubated (60 min): Table 2, drug preincubated 60 min, compound 20 μM
Source text: as §1, §2

[3] = compound 20 μM, 37° C., serum-free DMEM, drug-resistant cells
[4] = Table 1, compound 20 μM, 30 minutes, 37° C., serum-free DMEM, drug-resistant cells

Row | SMILES | Accumulation of [3H]vinblastine, KB-V-1 ([1]; 20 µM) | Accumulation of [3H]vinblastine, KB-V-1, drug preincubated (60 min) [1, 3] | Accumulation of [3H]vinblastine, KB-3 [2] | Accumulation of [3H]vinblastine, KB-3, drug preincubated (60 min) [2] | Accumulation of [3H]vinblastine, KB-V-1 [1, 4]
1 | COc1cc(C(=O)NCc2ccc3c(c2)C(=C2CCN(C)CC2)c2ccccc2C=C3)cc(OC)c1OC [3,4,5-Trimethoxy-N-((5-(1-methyl-4-piperidinylidene)-5H-dibenzo[a,d]cyclohepten-3-yl)methyl)benzamide] | 3.31 ± 0.25 pmole/mg protein | 3.57 ± 0.16 pmole/mg protein | 8.15 ± 0.44 pmole/mg protein | 3.67 ± 0.32 pmole/mg protein | 
2 | COc1cc(N)c(Cl)cc1C(=O)NCc1ccc2c(c1)C(=C1CCN(C)CC1)c1ccccc1C=C2 [4-Amino-5-chloro-2-methoxy-N-((5-(1-methyl-4-piperidinylidene)-5H-dibenzo[a,d]cyclohepten-3-yl)methyl)benzamide] |  |  | 3.47 ± 0.15 pmole/mg protein |  | 3.47 ± 0.26 pmole/mg protein
3 | Ic1ccc2c(c1)C(=C1CCN(CC3CC3)CC1)c1ccccc1C=C2 [(+)-1-cyclopropylmethyl-4-(3-iodo-5H-dibenzo[a,d]cyclohepten-5-ylidene)piperidine] |  |  | 7.35 ± 0.18 pmole/mg protein |  | 2.91 ± 0.25 pmole/mg protein
4 | FC(F)(F)Sc1ccc2c(c1)C(=C1CCN(CC3CC3)CC1)c1ccccc1C=C2 [(-)-1-cyclopropylmethyl-4-(3-trifluoromethylthio-5H-dibenzo[a,d]cyclohepten-5-ylidene)piperidine] |  | 1.85 ± 0.11 pmole/mg protein | 11.65 ± 0.11 pmole/mg protein | 10.16 ± 0.41 pmole/mg protein | 0.91 ± 0.04 pmole/mg protein
5 | CCOC(=O)C1=C(C)NC(C)=C(C(=O)OCC)C1c1ccc2c(c1)C(=C1CCN(C)CC1)c1ccccc1C=C2 [Diethyl 1,4-dihydro-2,6-dimethyl-4-(5-(1-methyl-4-piperidinylidene)-5H-dibenzo[a,d]cyclohepten-3-yl)pyridine dicarboxylate] |  |  | 3.32 ± 0.09 pmole/mg protein |  | 2.13 ± 0.15 pmole/mg protein
6 | COc1ccc(CCN(C)CCCC(C#N)(c2ccc(OC)c(OC)c2)C(C)C)cc1OC (stereo not drawn) [Verapamil, reference compound] |  | 2.36 ± 0.21 pmole/mg protein | 4.65 ± 0.13 pmole/mg protein | 4.71 ± 0.25 pmole/mg protein | 2.21 ± 0.18 pmole/mg protein
